According to paper PMC8330742, “New benzothieno[2,3-c]pyridines as non-steroidal CYP17 inhibitors: design, synthesis, anticancer screening, apoptosis induction, and in silico ADME profile studies” (Journal of Enzyme Inhibition and Medicinal Chemistry, 2021):

Key:
[1] = tested on: HCT-15; test: NCI-60 SRB screen; type: cell-based, human; details: Homo sapiens; single dose 10^−5 M; HCT-15, Colon cancer; read-out: Growth inhibition (%)
[2] = tested on: OVCAR-8; test: NCI-60 SRB screen; type: cell-based, human; details: Homo sapiens; single dose 10^−5 M; OVCAR-8, Ovarian cancer; read-out: Growth inhibition (%)
[3] = tested on: TK-10; test: NCI-60 SRB screen; type: cell-based, human; details: Homo sapiens; single dose 10^−5 M; TK-10, Renal cancer; read-out: Growth inhibition (%)
[4] = tested on: COLO 205; test: NCI-60 SRB screen; type: cell-based, human; details: Homo sapiens; single dose 10^−5 M; COLO 205, Colon cancer; read-out: Growth inhibition (%)
[5] = tested on: ACHN; test: NCI-60 SRB screen; type: cell-based; details: Homo sapiens, single dose 10^−5 M, Renal cancer, read-out: Growth inhibition (%)
[6] = tested on: M14; test: NCI-60 SRB screen; type: cell-based, human; details: Homo sapiens; single dose 10^−5 M; M14, Melanoma; read-out: Growth inhibition (%)
[7] = tested on: MALME-3M; test: NCI-60 SRB screen; type: cell-based, human; details: Homo sapiens, single dose 10^−5 M, Melanoma, read-out: Growth inhibition (%)
[8] = tested on: HOP-62; test: NCI-60 SRB screen; type: cell-based, human; details: Homo sapiens; single dose 10^−5 M; HOP-62, Non-small cell lung carcinoma; read-out: Growth inhibition (%)
[9] = tested on: UACC-62; test: NCI-60 SRB screen; type: cell-based, human; details: Homo sapiens; single dose 10^−5 M; UACC-62, Melanoma; read-out: Growth inhibition (%)
[10] = tested on: OVCAR-4; test: NCI-60 SRB screen; type: cell-based, human; details: Homo sapiens; single dose 10^−5 M; OVCAR-4, Ovarian cancer; read-out: Growth inhibition (%)
[11] = tested on: SK-MEL-28; test: NCI-60 SRB screen; type: cell-based; details: Homo sapiens; single dose 10^−5 M; SK-MEL-28, Melanoma; read-out: Growth inhibition (%)
[12] = tested on: HOP-92; test: NCI-60 SRB screen; type: cell-based, human; details: Homo sapiens; single dose 10^−5 M; HOP-92, Non-small cell lung carcinoma; read-out: Growth inhibition (%)
[13] = tested on: SN12C; test: NCI-60 SRB screen; type: cell-based, human; details: Homo sapiens, SN12C; single dose 10^−5 M; SN 12 C, Renal cancer; read-out: Growth inhibition (%)
[14] = tested on: NCI-H23; test: NCI-60 SRB screen; type: cell-based, human; details: Homo sapiens; single dose 10^−5 M; NCI-H23, Non-small cell lung carcinoma; read-out: Growth inhibition (%)
[15] = tested on: SK-MEL-5; test: NCI-60 SRB screen; type: cell-based, human; details: Homo sapiens; single dose 10^−5 M; SK-MEL-5, Melanoma; read-out: Growth inhibition (%)
[16] = tested on: SK-MEL-2; test: NCI-60 SRB screen; type: cell-based, human; details: Homo sapiens; single dose 10^−5 M; SK-MEL-2, Melanoma; read-out: Growth inhibition (%)
[17] = tested on: OVCAR-3; test: NCI-60 SRB screen; type: cell-based, human; details: Homo sapiens; single dose 10^−5 M; OVCAR-3, Ovarian cancer; read-out: Growth inhibition (%)
[18] = tested on: SW-620; test: NCI-60 SRB screen; type: cell-based; details: Homo sapiens; single dose 10^−5 M; SW-620, Colon cancer; read-out: Growth inhibition (%)
[19] = tested on: panel of 60 cancer cell lines; test: NCI-60 SRB screen, mean or range over the panel; type: cell-based, human; details: Homo sapiens; mean over the cell lines; single dose 10^−5 M; read-out: Mean growth inhibition (%)
[20] = tested on: NCI/ADR-RES; test: NCI-60 SRB screen; type: cell-based, human; details: Homo sapiens, single dose 10^−5 M, Ovarian cancer, read-out: Growth inhibition (%)
[21] = tested on: NCI-H322M; test: NCI-60 SRB screen; type: cell-based, human; details: Homo sapiens, single dose 10^−5 M, Non-small cell lung carcinoma, read-out: Growth inhibition (%)
[22] = tested on: HCC-2998; test: NCI-60 SRB screen; type: cell-based, human; details: Homo sapiens; single dose 10^−5 M; HCC-2998, Colon cancer; read-out: Growth inhibition (%)
[23] = tested on: NCI-H226; test: NCI-60 SRB screen; type: cell-based, human; details: Homo sapiens; single dose 10^−5 M; NCI-H226, Non-small cell lung carcinoma; read-out: Growth inhibition (%)
[24] = tested on: SR; test: NCI-60 SRB screen; type: cell-based; details: Homo sapiens, single dose 10^−5 M, Leukaemia, read-out: Growth inhibition (%)
[25] = tested on: HL-60(TB); test: NCI-60 SRB screen; type: cell-based, human; details: Homo sapiens; single dose 10^−5 M; HL-60(TB), Leukaemia; read-out: Growth inhibition (%)
[26] = tested on: SK-OV-3; test: NCI-60 SRB screen; type: cell-based, human; details: Homo sapiens; single dose 10^−5 M; SK-OV-3, Ovarian cancer; read-out: Growth inhibition (%)
[27] = tested on: A549/ATCC; test: NCI-60 SRB screen; type: cell-based, human; details: Homo sapiens, single dose 10^−5 M, Non-small cell lung carcinoma, read-out: Growth inhibition (%)
[28] = tested on: CAKI-1; test: NCI-60 SRB screen; type: cell-based, human; details: Homo sapiens; single dose 10^−5 M; CAKI-1, Renal cancer; read-out: Growth inhibition (%)
[29] = tested on: LOX IMVI; test: NCI-60 SRB screen; type: cell-based, human; details: Homo sapiens, single dose 10^−5 M, Melanoma, read-out: Growth inhibition (%)
[30] = tested on: IGROV1; test: NCI-60 SRB screen; type: cell-based, human; details: Homo sapiens, IGROV-1; single dose 10^−5 M; IGROV1, Ovarian cancer; read-out: Growth inhibition (%)
[31] = tested on: HT-29; test: NCI-60 SRB screen; type: cell-based; details: Homo sapiens; single dose 10^−5 M; HT-29, Colon cancer; read-out: Growth inhibition (%)
[32] = tested on: EKVX; test: NCI-60 SRB screen; type: cell-based, human; details: Homo sapiens, single dose 10^−5 M, Non-small cell lung carcinoma, read-out: Growth inhibition (%)
[33] = tested on: SF-295; test: NCI-60 SRB screen; type: cell-based, human; details: Homo sapiens; single dose 10^−5 M; SF-295, CNS cancer; read-out: Growth inhibition (%)
[34] = tested on: CCRF-CEM; test: NCI-60 SRB screen; type: cell-based; details: Homo sapiens, single dose 10^−5 M, Leukaemia, read-out: Growth inhibition (%)
[35] = tested on: KM12; test: NCI-60 SRB screen; type: cell-based, human; details: Homo sapiens; single dose 10^−5 M; KM12, Colon cancer; read-out: Growth inhibition (%)
[36] = tested on: K-562; test: NCI-60 SRB screen; type: cell-based, human; details: Homo sapiens, K562; single dose 10^−5 M; K-562, Leukaemia; read-out: Growth inhibition (%)
[37] = tested on: MDA-MB-435; test: NCI-60 SRB screen; type: cell-based; details: Homo sapiens, MDA-MB-435, read-out: Growth inhibition (%)
[38] = tested on: MOLT-4; test: NCI-60 SRB screen; type: cell-based; details: Homo sapiens; single dose 10^−5 M; MOLT-4, Leukaemia; read-out: Growth inhibition (%)
[39] = tested on: NCI-H522; test: NCI-60 SRB screen; type: cell-based, human; details: Homo sapiens; single dose 10^−5 M; NCI-H522, Non-small cell lung carcinoma; read-out: Growth inhibition (%)
[40] = tested on: NCI-H460; test: NCI-60 SRB screen; type: cell-based, human; details: Homo sapiens; single dose 10^−5 M; NCI-H460, Non-small cell lung carcinoma; read-out: Growth inhibition (%)
[41] = tested on: UO-31; test: NCI-60 SRB screen; type: cell-based, human; details: Homo sapiens; single dose 10^−5 M; UO-31, Renal cancer; read-out: Growth inhibition (%)
[42] = tested on: RXF 393; test: NCI-60 SRB screen; type: cell-based, human; details: Homo sapiens; single dose 10^−5 M; RXF 393, Renal cancer; read-out: Growth inhibition (%)
[43] = tested on: SF-268; test: NCI-60 SRB screen; type: cell-based, human; details: Homo sapiens; single dose 10^−5 M; SF-268, CNS cancer; read-out: Growth inhibition (%)
[44] = tested on: HCT-116; test: NCI-60 SRB screen; type: cell-based, human; details: Homo sapiens; single dose 10^−5 M; HCT-116, Colon cancer; read-out: Growth inhibition (%)

O=[N+]([O-])c1cccc(C2NC(N3CCCCC3)=C(Cl)c3c2sc2c(F)cccc32)c1 (centres unmarked) [Compound 8c, 4-Chloro-3-(piperidin-1-yl)-8-fluoro-1-(3-nitrophenyl)-1,2-dihydro [1]benzothieno[2,3-c]pyridine]
inhibition at 10 µM [1]: 3.84% | inhibition at 10 µM [2]: -6.18% | inhibition at 10 µM [3]: -22.4% | inhibition at 10 µM [4]: -12.7% | inhibition at 10 µM [5]: 6.2% | inhibition at 10 µM [6]: 1.39% | inhibition at 10 µM [7]: 4.61% | inhibition at 10 µM [8]: 5.22% | inhibition at 10 µM [9]: 8.57% | inhibition at 10 µM [10]: 12.3% | inhibition at 10 µM [11]: -16.7% | inhibition at 10 µM [12]: 9.27% | inhibition at 10 µM [13]: 3.66% | inhibition at 10 µM [14]: 3.42% | inhibition at 10 µM [15]: 0.27% | inhibition at 10 µM [16]: 2.66% | inhibition at 10 µM [17]: -1.68% | inhibition at 10 µM [18]: 1.71% | inhibition at 10 µM [19]: 7.22% | inhibition at 10 µM [20]: -2.62% | inhibition at 10 µM [21]: -0.59% | inhibition at 10 µM [22]: -6.85% | inhibition at 10 µM [23]: 28.2% | inhibition at 10 µM [24]: 10.1% | inhibition at 10 µM [25]: 18.7% | inhibition at 10 µM [26]: 9.9% | inhibition at 10 µM [27]: 5.05% | inhibition at 10 µM [28]: 18.8% | inhibition at 10 µM [29]: -0.7% | inhibition at 10 µM [30]: 17.4% | inhibition at 10 µM [31]: -2.62% | inhibition at 10 µM [32]: 19.1% | inhibition at 10 µM [33]: -6.6% | inhibition at 10 µM [34]: 30.3% | inhibition at 10 µM [35]: 3.41% | inhibition at 10 µM [36]: 14.1% | inhibition at 10 µM [37]: 2% | inhibition at 10 µM [38]: 35.6% | inhibition at 10 µM [39]: 17.7% | inhibition at 10 µM [40]: 3% | inhibition at 10 µM [41]: 38% | inhibition at 10 µM [42]: -15.6% | inhibition at 10 µM [43]: 6.19% | inhibition at 10 µM [44]: 1.95%
